The values that follow come from US20080227823A1, “AMIDE DERIVATIVES AS CALCIUM CHANNEL BLOCKERS” (priority 2007, published 2008).

The structures appear in SMILES notation.

For orientation: Kd means the constant that tells how readily two partners part at equilibrium.

Assay [1] has as its target T1, human α1G T-type channels (Homo sapiens, UniProt O43497).
T1 construct: expressed in transfected cells; host or cells: HEK 293
Kind of assay: T-type calcium channel block, whole cell patch clamp in HEK cells. The format is cell-based. Particulars: measured at 1 μM drug, mainly non-inactivated protocol. As for the experimental part: (§1) T-type calcium channel blocking activity was assayed in human embryonic kidney cells, HEK 293, stably transfected with the T-type calcium channel subunits. Briefly, cells were cultured in Dulbecco's modified eagle medium (DMEM) supplemented with 10% fetal bovine serum, 200 U/ml penicillin and 0.2 mg/ml streptomycin at 37° C. with 5% CO2. At 85% confluency cells were split with 0.25% trypsin/1 mM EDTA and plated at 10% confluency on glass coverslips. At 12 hours the medium was replaced and the cells stably transfected using a standard calcium phosphate protocol and the appropriate calcium channel cDNA's. Fresh DMEM was supplied and the cells transferred to 28° C./5% CO2. Cells were incubated for 1 to 2 days prior to whole cell recording.
(§2) Standard patch-clamp techniques were employed to identify blockers of T-type currents. Briefly, previously described HEK cell lines stably expressing human α1G, α1H and α1I T-type channels were used for all the recordings (passage #: 4-20, 37° C., 5% CO2). Whole cell patch clamp experiments were performed using an Axopatch 200B amplifier (Axon Instruments, Burlingame, Calif.) linked to a personal computer equipped with pCLAMP software. Data were analyzed using Clampfit (Axon Instruments) and SigmaPlot 4.0 (Jandel Scientific). To obtain T-type currents, plastic dishes containing semi-confluent cells were positioned on the stage of a ZEISS AXIOVERT S100 microscope after replacing the culture medium with external solution (see below). Whole-cell patches were obtained using pipettes (borosilicate glass with filament, O.D.: 1.5 mm, I.D.: 0.86 mm, 10 cm length), fabricated on a SUTTER P-97 puller with resistance values of ˜5 MΩ (see below for internal solution).
(§3) T-type currents were reliably obtained by using two voltage protocols: • (1) “non-inactivating”, and • (2) “inactivation”
(§4) In the non-inactivating protocol, the holding potential is set at −110 mV and with a pre-pulse at −100 mV for 1 second prior to the test pulse at −40 mV for 50 ms. In the inactivation protocol, the pre-pulse is at approximately −85 mV for 1 second, which inactivates about 15% of the T-type channels.
(§5) Test compounds were dissolved in external solution, 0.1-0.01% DMSO. After 10 min rest, they were applied by gravity close to the cell using a WPI microfil tubing. The “non-inactivated” pre-pulse was used to examine the resting block of a compound. The “inactivated” protocol was employed to study voltage-dependent block. However, the initial data shown below were mainly obtained using the non-inactivated protocol only. Kd values are shown for various compounds of the invention in Table 4 measured at 1 μM for the drug of interest except for compound 18 which was measured at 200 nM.
A general note: The patch-clamp technique gives a direct electrical read-out from membranes.

Assay [2] has as its target T2, human α1H T-type channels (Homo sapiens, UniProt O95180).
T2 construct: expressed in transfected cells; host or cells: HEK 293
Described as above. The format is cell-based. Particulars: measured at 1 μM drug, mainly non-inactivated protocol. As to the method: as §1, §2, §3, §4, §5

Assay [3] concerns the target T3, human α1I T-type channels (Homo sapiens, UniProt Q9P0X4).
T3 construct: expressed in transfected cells; host or cells: HEK 293
The assay is described as above. In kind it is cell-based. Conditions: measured at 1 μM drug, mainly non-inactivated protocol. As for the experimental part:
as §1, §2, §3, §4, §5

Assay [4] has as its system T-type over L-type channels. Conditions: cited from earlier work.
For assay [5] the following is noted: spinal nerve ligation model of neuropathic pain in rats; cited from earlier work.

T1 sequence (O43497 whole entry): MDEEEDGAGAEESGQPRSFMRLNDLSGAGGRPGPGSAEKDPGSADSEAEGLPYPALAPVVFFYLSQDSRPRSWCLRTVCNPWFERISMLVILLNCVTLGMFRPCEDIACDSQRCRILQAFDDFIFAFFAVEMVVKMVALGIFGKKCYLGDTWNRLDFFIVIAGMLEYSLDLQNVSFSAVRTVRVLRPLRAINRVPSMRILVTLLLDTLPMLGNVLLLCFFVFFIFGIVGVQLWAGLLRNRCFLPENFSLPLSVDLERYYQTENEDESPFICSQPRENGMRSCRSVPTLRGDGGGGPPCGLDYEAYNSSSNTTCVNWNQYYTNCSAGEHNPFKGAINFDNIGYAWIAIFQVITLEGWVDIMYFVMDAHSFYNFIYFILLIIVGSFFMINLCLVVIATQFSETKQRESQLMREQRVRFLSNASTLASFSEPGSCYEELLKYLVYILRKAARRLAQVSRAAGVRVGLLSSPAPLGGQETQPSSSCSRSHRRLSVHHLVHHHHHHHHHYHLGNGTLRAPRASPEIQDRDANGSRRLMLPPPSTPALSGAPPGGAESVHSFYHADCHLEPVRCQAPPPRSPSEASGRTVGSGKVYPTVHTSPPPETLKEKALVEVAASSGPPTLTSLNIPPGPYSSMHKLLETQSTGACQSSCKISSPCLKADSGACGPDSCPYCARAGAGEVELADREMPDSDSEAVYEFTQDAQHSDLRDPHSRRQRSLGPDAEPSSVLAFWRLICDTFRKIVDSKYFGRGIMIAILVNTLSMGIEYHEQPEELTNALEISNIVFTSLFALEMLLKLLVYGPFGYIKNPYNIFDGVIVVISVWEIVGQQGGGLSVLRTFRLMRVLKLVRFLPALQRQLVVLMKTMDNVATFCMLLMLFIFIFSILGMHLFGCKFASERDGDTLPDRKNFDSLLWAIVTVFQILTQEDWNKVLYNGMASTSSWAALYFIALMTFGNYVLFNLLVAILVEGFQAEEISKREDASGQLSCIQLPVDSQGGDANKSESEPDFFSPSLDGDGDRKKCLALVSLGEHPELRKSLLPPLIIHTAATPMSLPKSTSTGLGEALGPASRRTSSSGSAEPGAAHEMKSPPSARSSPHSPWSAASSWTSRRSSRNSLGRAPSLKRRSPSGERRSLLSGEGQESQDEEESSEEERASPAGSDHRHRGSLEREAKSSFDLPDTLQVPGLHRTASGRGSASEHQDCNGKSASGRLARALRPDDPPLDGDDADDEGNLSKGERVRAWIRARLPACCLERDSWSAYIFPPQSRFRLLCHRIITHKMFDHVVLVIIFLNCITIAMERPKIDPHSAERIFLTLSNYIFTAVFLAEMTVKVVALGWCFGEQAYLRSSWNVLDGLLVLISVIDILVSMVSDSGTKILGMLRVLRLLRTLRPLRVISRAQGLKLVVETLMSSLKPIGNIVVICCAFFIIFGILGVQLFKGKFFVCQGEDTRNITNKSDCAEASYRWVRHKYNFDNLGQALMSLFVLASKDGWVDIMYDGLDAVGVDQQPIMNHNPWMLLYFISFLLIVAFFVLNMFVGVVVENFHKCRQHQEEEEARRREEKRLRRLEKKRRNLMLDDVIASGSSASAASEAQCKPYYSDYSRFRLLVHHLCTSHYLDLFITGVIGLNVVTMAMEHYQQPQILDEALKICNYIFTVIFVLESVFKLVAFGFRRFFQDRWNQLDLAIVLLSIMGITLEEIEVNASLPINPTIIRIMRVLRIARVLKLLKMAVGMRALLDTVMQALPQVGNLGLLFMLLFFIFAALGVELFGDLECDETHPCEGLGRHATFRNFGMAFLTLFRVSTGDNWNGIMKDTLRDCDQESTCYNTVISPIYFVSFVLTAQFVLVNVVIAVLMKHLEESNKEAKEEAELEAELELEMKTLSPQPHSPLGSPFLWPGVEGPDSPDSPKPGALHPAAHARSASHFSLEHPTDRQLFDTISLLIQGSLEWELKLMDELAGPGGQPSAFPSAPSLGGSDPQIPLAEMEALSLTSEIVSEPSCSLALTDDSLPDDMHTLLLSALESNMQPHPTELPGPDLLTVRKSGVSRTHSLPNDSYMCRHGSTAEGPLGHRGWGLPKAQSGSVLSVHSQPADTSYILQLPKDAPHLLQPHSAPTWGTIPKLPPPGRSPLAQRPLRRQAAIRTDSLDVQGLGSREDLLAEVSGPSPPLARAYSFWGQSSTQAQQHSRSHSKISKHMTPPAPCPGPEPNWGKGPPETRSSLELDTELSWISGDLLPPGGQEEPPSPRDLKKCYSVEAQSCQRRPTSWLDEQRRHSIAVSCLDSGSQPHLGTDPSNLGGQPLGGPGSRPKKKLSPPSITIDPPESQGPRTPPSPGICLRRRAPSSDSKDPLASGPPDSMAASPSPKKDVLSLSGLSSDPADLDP
T2 sequence (O95180 whole entry): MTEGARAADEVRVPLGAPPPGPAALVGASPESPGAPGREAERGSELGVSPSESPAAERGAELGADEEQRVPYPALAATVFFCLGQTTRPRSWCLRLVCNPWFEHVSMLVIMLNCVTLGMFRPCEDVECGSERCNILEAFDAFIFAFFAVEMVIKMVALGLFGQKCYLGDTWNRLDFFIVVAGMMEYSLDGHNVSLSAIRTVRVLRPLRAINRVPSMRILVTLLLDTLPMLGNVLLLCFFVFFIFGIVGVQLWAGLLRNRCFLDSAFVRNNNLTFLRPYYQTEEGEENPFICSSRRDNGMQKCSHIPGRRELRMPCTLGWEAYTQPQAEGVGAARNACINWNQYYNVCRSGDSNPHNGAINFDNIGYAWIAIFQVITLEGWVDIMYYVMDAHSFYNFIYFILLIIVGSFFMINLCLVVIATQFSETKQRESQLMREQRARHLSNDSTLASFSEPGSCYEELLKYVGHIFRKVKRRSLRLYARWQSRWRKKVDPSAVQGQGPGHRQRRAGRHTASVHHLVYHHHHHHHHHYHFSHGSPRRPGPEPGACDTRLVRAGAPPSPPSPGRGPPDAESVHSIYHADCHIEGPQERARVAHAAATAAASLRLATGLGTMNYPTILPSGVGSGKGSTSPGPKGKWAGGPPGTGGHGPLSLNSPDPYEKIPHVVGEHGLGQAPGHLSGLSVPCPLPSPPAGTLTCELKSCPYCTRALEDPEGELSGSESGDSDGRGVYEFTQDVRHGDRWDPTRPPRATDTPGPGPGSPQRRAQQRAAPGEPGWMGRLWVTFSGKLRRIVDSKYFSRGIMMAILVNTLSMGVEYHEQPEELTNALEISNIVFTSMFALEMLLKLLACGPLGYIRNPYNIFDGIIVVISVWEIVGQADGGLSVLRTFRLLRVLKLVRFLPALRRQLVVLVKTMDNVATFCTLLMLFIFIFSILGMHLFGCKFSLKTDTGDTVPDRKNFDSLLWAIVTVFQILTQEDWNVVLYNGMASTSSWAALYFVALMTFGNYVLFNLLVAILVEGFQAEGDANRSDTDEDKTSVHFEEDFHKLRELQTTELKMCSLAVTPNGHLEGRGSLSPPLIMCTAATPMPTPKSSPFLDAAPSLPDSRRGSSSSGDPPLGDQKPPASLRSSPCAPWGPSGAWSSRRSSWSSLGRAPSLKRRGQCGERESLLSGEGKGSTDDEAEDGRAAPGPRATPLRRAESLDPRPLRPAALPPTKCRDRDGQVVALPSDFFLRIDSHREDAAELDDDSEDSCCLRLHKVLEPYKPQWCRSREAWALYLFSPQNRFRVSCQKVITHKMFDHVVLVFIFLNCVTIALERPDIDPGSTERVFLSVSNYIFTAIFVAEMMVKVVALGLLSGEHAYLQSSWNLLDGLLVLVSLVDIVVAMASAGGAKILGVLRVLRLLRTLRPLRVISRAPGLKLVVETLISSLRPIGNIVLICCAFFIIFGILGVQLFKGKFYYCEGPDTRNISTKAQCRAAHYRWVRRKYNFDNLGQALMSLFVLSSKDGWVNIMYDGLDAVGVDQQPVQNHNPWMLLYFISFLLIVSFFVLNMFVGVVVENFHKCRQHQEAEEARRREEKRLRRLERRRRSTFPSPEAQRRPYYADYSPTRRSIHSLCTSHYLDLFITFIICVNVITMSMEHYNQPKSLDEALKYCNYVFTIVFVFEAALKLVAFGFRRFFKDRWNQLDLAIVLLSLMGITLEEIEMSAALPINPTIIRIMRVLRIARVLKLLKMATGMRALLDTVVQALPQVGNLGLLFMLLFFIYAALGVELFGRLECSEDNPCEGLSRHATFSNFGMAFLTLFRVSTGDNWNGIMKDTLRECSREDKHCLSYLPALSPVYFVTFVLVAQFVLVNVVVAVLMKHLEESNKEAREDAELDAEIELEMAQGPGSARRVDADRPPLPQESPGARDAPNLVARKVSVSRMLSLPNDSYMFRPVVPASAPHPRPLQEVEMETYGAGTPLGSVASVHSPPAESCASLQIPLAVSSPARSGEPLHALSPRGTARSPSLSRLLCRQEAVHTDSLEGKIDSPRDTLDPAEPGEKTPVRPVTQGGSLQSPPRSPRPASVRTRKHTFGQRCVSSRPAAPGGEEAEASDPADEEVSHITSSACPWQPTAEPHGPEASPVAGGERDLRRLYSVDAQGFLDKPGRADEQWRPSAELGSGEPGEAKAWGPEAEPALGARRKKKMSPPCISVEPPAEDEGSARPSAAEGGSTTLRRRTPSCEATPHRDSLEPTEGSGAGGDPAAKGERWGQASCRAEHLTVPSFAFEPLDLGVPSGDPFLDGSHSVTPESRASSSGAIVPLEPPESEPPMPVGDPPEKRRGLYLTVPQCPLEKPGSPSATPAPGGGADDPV

As for `NCC(=O)N1CCC(NC(=O)/C=C/c2ccc(F)c(Br)c2)(C(=O)NCCc2c[nH]c3ccc(F)cc23)CC1` [Compound 24, (E)-1-(2-aminoacetyl)-4-(3-(3-bromo-4-fluorophenyl)acrylamido)-N-(2-(5-fluoro-1H-indol-3-yl)ethyl)piperidine-4-carboxamide], the figures for the Kd in assay [1], in assay [2] and in assay [3] were 180 nM, 1450 nM and 440 nM, respectively.
For the molecule `O=C(/C=C/c1ccc(F)c(Br)c1)NC1(C(=O)NCCc2c[nH]c3ccc(F)cc23)CCN(C(=O)C(F)(F)F)CC1` [Compound 27, (E)-4-(3-(3-bromo-4-fluorophenyl)acrylamido)-N-(2-(5-fluoro-1H-indol-3-yl)ethyl)-1-(2,2,2-trifluoroacetyl) piperidine-4-carboxamide], the results for the dissociation constant Kd in assay [1], in assay [2] and in assay [3] were 150 nM, 840 nM and 210 nM, respectively.
For `O=C(/C=C/c1ccc(F)cc1)NC1(C(=O)Nc2cc(C(F)(F)F)cc(C(F)(F)F)c2)CCNCC1` [Compound 32, (E)-N-(3,5-bis(trifluoromethyl)phenyl)-4-(3-(4-fluorophenyl)acrylamido)piperidine-4-carboxamide], in that order: 50 nM, 420 nM and 50 nM.
As to `COCC(=O)O[C@]1(CCN(C)CCCc2nc3ccccc3[nH]2)CCc2cc(F)ccc2[C@@H]1C(C)C` [Mibefradil], the “selective for T-type over L-type channels” value in assay [4] is listed as 10-30 fold. Moreover, the anti-hyperalgesic activity result in assay [5] was “anti-hyperalgesic activity”.
`CCC1(C)CC(=O)NC1=O` (stereo not drawn) [ethosuximide]: the anti-hyperalgesic activity entry in assay [5] is given as “anti-hyperalgesic activity”.
